In patent publication US12515032B2, “Gelatin methacryloyl-based microneedle patches for delivery of water-insoluble drugs” (THE REGENTS OF THE UNIVERSITY OF CALIFORNIA, priority 2020, dated 2026):

Columns and labels:
[1] = Curcumin loading capacity / solubility in GelMA and GelMA-β-CD solution (absorbance at 430 nm); format: physicochemical
Experimental: Curcumin was selected as a model for water-insoluble drug or therapeutic agent 26 (FIG. 11) to test the loading efficacy of GelMA-β-CD. Aqueous drug suspension was used to compare the loading capacity relative to unmodified GelMA. […] The intermolecular interaction between CD and curcumin primarily dictated the desirable properties of water-insoluble drug 26 delivery.
GelMA-β-(D) and curcumin inclusion complex preparation: To prepare the inclusion complex, excess amount of curcumin (5 mg) was added to pre-dissolved GelMA-β-CD solution in 1 mL DPBS (20%, g/mL) and stirred at 37° C. for 30 min to form the inclusion complex solution where curcumin could be encapsulated within the cavity of CD and the resulting solution was named as GelMA-β-CD/CUR. For comparison of curcumin solubility, GelMA was used as a control and the resulting solution was named as GelMA/CUR. After the equilibrium was reached, the suspension was centrifuged at 12,000 rpm for 10 min; supernatants were withdrawn and further filtered through a 0.22 μm film. The inclusion complex solutions were measured for absorbance at 430 nm to assess solubility. The prepared GelMA-β-CD/CUR solution was also used for aqueous stability study compared to free curcumin dissolved in DPBS (DPBS:ethanol as 4:1). The GelMA-β-CD/CUR solutions were freeze-dried for additional FTIR and DSC analysis.

[2] = Aqueous stability of curcumin in DPBS (absorbance at 430 nm); format: physicochemical; conditions: after 1 h at 37° C. incubation
Experimental: The stability of curcumin was monitored by measuring absorbance at 430 nm for both the inclusion complex and free curcumin dissolved in DPBS (DPBS diluted with ethanol). The percentage of remaining curcumin was estimated by measuring the absorbance compared to the initial absorbance over a 6 h period. […] GelMA-β-(D) and curcumin inclusion complex preparation: […] For comparison of curcumin solubility, GelMA was used as a control and the resulting solution was named as GelMA/CUR. After the equilibrium was reached, the suspension was centrifuged at 12,000 rpm for 10 min; supernatants were withdrawn and further filtered through a 0.22 μm film. The inclusion complex solutions were measured for absorbance at 430 nm to assess solubility. The prepared GelMA-β-CD/CUR solution was also used for aqueous stability study compared to free curcumin dissolved in DPBS (DPBS:ethanol as 4:1). The GelMA-β-CD/CUR solutions were freeze-dried for additional FTIR and DSC analysis.

| Loading capacity (solubility) of curcumin [1] [µg/mL] | Percentage of remaining curcumin [2] | Compound |
| --- | --- | --- |
| 84.8 ± 13.5 | – | gelatin methacryloyl [GelMA] |
| – | approximately 45% | COc1cc(/C=C/C(=O)CC(=O)/C=C/c2ccc(O)c(OC)c2)ccc1O [curcumin] |
